Where two headings read alike, the source gives them in different places.

Data set [1] concerns beet armyworm (Spodoptera exigua) larvae.
The text on data set [2]:
Determination of whether a pesticidally active ingredient is reactive with singlet oxygen can be determined from a simple singlet oxygen reactivity test, comprising irradiating a solution of a pesticidally active ingredient in the presence of a photosensitizer, e.g. methylene blue or rose bengal, with a suitable light source, e.g. a sodium lamp, whose spectral output is capable of allowing light absorption by the photo-sensitizer while bypassing the absorption band of the pesticidally active ingredient. The light source, in combination with the photosensitizer and molecular oxygen, will generate singlet oxygen. The observed degradation of the pesticidally active ingredient by a suitable analytical technique, such as HPLC, is indicative of its reaction with singlet oxygen. This test can be conducted in solvents in which singlet oxygen has a relatively long lifetime, e.g. perdeuterated versions of common solvents and carbon disulfide in order to speed the rate of reaction and thereby maximize the detectability of the degradation. Decay constants for singlet oxygen in various solvents are well known in the art and can be found in J. Phys. […] An Expanded and Revised Compilation” by Francis Wilkinson, W. Phillip Helman and Alberta B. Ross; Table 1, entitled Decay Constants for Singlet Oxygen in Various Solvents.
Confirmation of the degradation of the pesticidally active ingredient by singlet oxygen can be obtained further by adding a molecule which is capable of deactivating singlet oxygen by physical or chemical means, i.e. a singlet oxygen quencher, to the pesticidally active ingredient-photosensitizer solution. Suitable singlet oxygen quenchers include, for example DABCO (1,4-diazabicyclo[2.2.2]octane) and beta-carotene. A reduction in the rate of degradation of the pesticidally active ingredient in the presence of a singlet oxygen quencher confirms that the initial degradation was due to the reaction with singlet oxygen.
The solution was irradiated with a Philips 150 watt high pressure sodium lamp (sample was ca. 20 cm from lamp). […] The experiment was repeated with the inclusion of the singlet oxygen quencher DABCO (1.0×10^−3M, diazabicyclooctane Aldrich). A value greater than one indicates a slowing of the degradation due to singlet oxygen in the presence of the quencher.

Setting [3] is: activity enhancer alone, 1000 ppm, 9 DAT.
The mark [4] stands for this setting: activity enhancer alone, 10,000 ppm, 4 DAT.
The mark [5] stands for this setting: activity enhancer alone, 10,000 ppm, 7 DAT.

As to `C1CN2CCN1CC2` [DABCO, diazabicyclooctane], the Percent mortality in data set [1] (activity enhancer alone, 1000 ppm, 2 DAT) was 0%; in data set [1] (activity enhancer alone, 1000 ppm, 7 DAT), 0%; in data set [1] (setting [3]) it was 0%.

Take `CCO[C@@H]1[C@@H](OC)[C@H](C)O[C@@H](O[C@@H]2C[C@H]3CC[C@@H]4[C@@H](C=C5C(=O)[C@H](C)[C@@H](O[C@H]6CC[C@H](N(C)C)[C@@H](C)O6)CCC[C@H](CC)OC(=O)C[C@H]54)[C@@H]3C2)[C@@H]1OC` [DE-175 J, (2R,3aR,5aR,5bS,9S,13S,14R,16aS,16bR)-13-{[(2R,5S,6R)-5-(dimethylamino)-6-methyltetrahydro-2H-pyran-2-yl]oxy}-9-ethyl-14-methyl-7,15-dioxo-2,3,3a,4,5,5a,5b,6,7,9,10,11,12,13,14,15,16a,16b-octadecahydro-1H-as-indaceno[3,2-d]oxacyclododecin-2-yl 6-deoxy-3-O-ethyl-2,4-di-O-methyl-α-L-mannopyranoside]: in data set [2], the “rate constant for the degradation” value was 0.1317 min⁻¹. In addition, the kwo/kw in data set [2] (potential activity enhancer TEPA, weight ratio I/II 3.3:1, acetonitrile) was determined as 1.9; in data set [2] (potential activity enhancer Tryptophan, weight ratio I/II 1:1, methanol) it was 1.15; in data set [2] (potential activity enhancer Tryptophan, weight ratio I/II 1:10, methanol), 1.3; in data set [2] (potential activity enhancer Zein, weight ratio I/II 1:5, isopropanol(85)/water(15)), 1.0; in data set [2] (quencher DABCO, weight ratio active ingredient/DABCO 3.3:1, acetonitrile), 5.1.

`CC(Cc1ccc(C(C)(C)C)cc1)CN1C[C@@H](C)O[C@@H](C)C1` (stereo partly drawn) [Fenpropimorph]: the kwo/kw in data set [2] (quencher DABCO, weight ratio active ingredient/DABCO 2.7:1, acetonitrile) was found to be 7.7.

Regarding `C1N2CN3CN1CN(C2)C3` [HMTA, hexamethylenetetramine], the Percent mortality in data set [1] (setting [3]) was determined as 4%.

Consider `C=CCOC(Cn1ccnc1)c1ccc(Cl)cc1Cl` (stereo not drawn) [Imazalil], for which the kwo/kw in data set [2] (quencher DABCO, weight ratio active ingredient/DABCO 2.6:1, acetonitrile) was 4.4.

With Abamectin, the kwo/kw is 1.0 in data set [2] (potential activity enhancer Zein, weight ratio I/II 1:20, isopropanol(85)/water(15)) and 37.2 in data set [2] (quencher DABCO, weight ratio active ingredient/DABCO 7.8:1, acetonitrile-d3).

For “BSA (as 30% aqueous suspension): Bovine Serum Albumin available from Sigma”, the Percent mortality in data set [1] (setting [4]) and in data set [1] (setting [5]) was 0% in each case.

For “BSA (as 96% powder): Bovine Serum Albumin available from Sigma”, the Percent mortality in data set [1] (setting [4]) and in data set [1] (setting [5]) was 0% in each case.

B1: Egg albumin: Egg Albumin available from Sigma (protein, UniProt P01012 2-386, looked up)
Ovalbumin: GSIGAASMEFCFDVFKELKVHHANENIFYCPIAIMSALAMVYLGAKDSTRTQINKVVRFDKLPGFGDSIEAQCGTSVNVHSSLRDILNQITKPNDVYSFSLASRLYAEERYPILPEYLQCVKELYRGGLEPINFQTAADQARELINSWVESQTNGIIRNVLQPSSVDSQTAMVLVNAIVFKGLWEKAFKDEDTQAMPFRVTEQESKPVQMMYQIGLFRVASMASEKMKILELPFASGTMSMLVLLPDEVSGLEQLESIINFEKLTEWTSSNVMEERKIKVYLPRMKMEEKYNLTSVLMAMGITDVFSSSANLSGISSAESLKISQAVHAAHAEINEAGREVVGSAEAGVDAASVSEEFRADHPFLFCIKHIATNAVLFFGRCVSP
With B1, the Percent mortality was determined as 0% in data set [1] (activity enhancer alone, 1000 ppm, 3 DAT); 0% in data set [1] (activity enhancer alone, 1000 ppm, 5 DAT); 0% in data set [1] (activity enhancer alone, 1000 ppm, 8 DAT).

These data come from patent US20070104750A1, “Pesticidally active compositions having enhanced activity” (priority 2005, published 2007).
